Test results published in patent US20080262080A1, “Allergy Suppressive Agent” (KYUSHU UNIVERSITY, NATIONAL UNIVERSITY CORPORATION, priority 2004, published 2008).

Experiments:
[1] = tested on: FcεRI α- and γ-chains mRNA; assay: FcεRI mRNA expression in human peripheral blood basophils (RT-PCR); type: cell-based; conditions: 25 µM of chrysin, 24 hours, vs DMSO
Experimental: Peripheral blood basophils (1×10^6 cells/mL) collected from the vein of a donor were incubated in a medium comprising 25 µM of chrysin or dimethyl sulfoxide (DMSO) for 24 hours. Then, RNA was extracted and the mRNA expression level of each of the FcεRI α- and γ-chains was examined by the RT-PCR method. Venous blood was collected from the forearm elbow of a donor. Then, peripheral blood lymphocytes were separated and purified using Lymphocyte Separation Medium (ICN Biomedical Inc.) and peripheral basophils were separated and purified by the density gradient centrifugation method using Percoll (Amersham Biosciences). The basophils (1×10^6 cells/mL) were incubated in 5% FCS-RPMI 1640 medium, to which 25 µM of chrysin or a solvent dimethylsulfoxide (DMSO) had been added, for 24 hours. RNA was extracted and the mRNA expression levels of FcεRI α- and γ-chains were examined by the RT-PCR method as in Example 1.

STAT6 = assay: Detection of phosphorylated STAT6 in IL-4-treated DND39 cells; type: cell-based, human; conditions: IL-4 (100 U/ml), chrysin at various concentrations, 30 min
Experimental: DND39 cells were treated with IL-4 (100 U/ml) and chrysin at various concentrations and then lysed. Each cell lysate was subjected to immunoprecipitation using anti-STAT6 antibody. The immunoprecipitate was subjected to 8% SDS-PAGE and transferred onto a nitrocellulose membrane and phosphorylated STAT6 was detected. The density of DND39 cells was adjusted to 2×10^6 cells/mL and IL-4 (100 U/mL) and chrysin at each concentration were added thereto. Then, the cells were lysed by treating for 30 min. The cell lysate was subjected to immunoprecipitation using anti-STAT6 antibody. The immunoprecipitate was subjected to 8% SDS-PAGE and blotted onto a nitrocellulose membrane. Then phosphorylated STAT6 was detected using anti-tyrosine phosphorylation antibody (PY20).

blood cytokine levels = assay: Blood cytokine levels of OVA-sensitized mice after chrysin intake (Mouse Cytokine Array); type: in vivo
Text: Blood was collected as in Example 6 and 32 kinds of cytokines (6 Ckine, CTACK, Eotaxin, G-CSF, GM-CSF, IL-2, IL-3, Il-4, IL-5, Il-6, IL-9, IL-10, IL-12, IL-12p70, IL-13, IL-17, IFN-γ, KC, Leptin, MCP-1, MCP-5, MIP-1α, MIP-2, MIP-3β, RANTES, SCF, sTNFRI, TARC, TIMP-1, TNF-α, Tpo and VEGF) were detected using Ray Bio™ Mouse Cytokine Array (Ray Biotech, Inc.).

[2] = tested on: germline IgE heavy chain transcription (εGT); assay: Suppression of IL-4-induced germline IgE heavy chain transcript (εGT) expression in DND39 cells (RT-PCR, blot); type: cell-based, human; conditions: IL-4 (25 U/ml), chrysin at various concentrations, 48 hours
Experimental: IL-4 (25 U/ml) and chrysin at various concentrations were added to human mature B cell line DND39 cells and then the cells were incubated for 48 hours. mRNA was collected from the cells and cDNA was synthesized. An RT-PCR amplification product was electrophoresed on an agarose gel and transferred onto a membrane and εGT was thus detected. GAPDH (glyceraldehyde-3-phosphate dehydrogenase) was employed as a control. For each concentration or the control, the blot in the right side indicates the result in a 1/10 amount.
As described above, the inhibition of the εGT expression brings about fundamental suppression of IgE production. It is known that human mature B cell line DND39 expresses εGT in response to a stimulus by IL-4. Thus, DND39 cells were incubated in the presence of IL-4 and chrysin and the effect of chrysin on the εGT expression was examined.
Human mature B cell line DND39 was subcultured in a RPMI 1640 medium (Nissui), to which 5% of FBS (Intergen) had been added, at 37° C. and 5% CO2 vapor saturation and maintained therein. […]
The density of DND39 cells was adjusted to 2×10^5 cells/mL and incubated in the presence of IL-4 (25 U/mL) and chrysin at each concentration. […] Then, the RNA concentration was measured using a spectrophotometer Ultrospec 3000 (Pharmacia Biotech, Piscatway, N.J.). […]

How did the “FcεRI α-chain mRNA expression level” value [1] turn out when O=c1cc(-c2ccccc2)oc2cc(O)cc(O)c12 [Chrysin, 5,7-dihydroxyflavone] was run?
Its value is “strongly lowered”.

And the “FcεRI γ-chain mRNA expression level” value [1]?
Its value is “lowered”.

And the “phosphorylation of STAT6” value (STAT6)?
The value was “suppressed”.

What about the “IL-4 level after taking chrysin” value (blood cytokine levels; in words) of the same compound?
The value was “lower than the detection limit”.

And the “blood levels of G-CSF, GM-CSF, leptin and TNF-α” value (blood cytokine levels; in words)?
Its value is “tendency toward increase”.

What about the “cytokine levels of 26 of the 32 kinds of cytokines” value (blood cytokine levels; in words) of the same compound?
The value was “no change”.

What about the “G-CSF blood level, relative value” (blood cytokine levels; non-intake group = 1) of the same compound?
Its value is 2.43.

And the “GM-CSF blood level, relative value” (blood cytokine levels; non-intake group = 1)?
The value was 1.68.

What about the “IL-4 blood level, relative value” (blood cytokine levels; non-intake group = 1) of the same compound?
The value was 0.

And the “Leptin blood level, relative value” (blood cytokine levels; non-intake group = 1)?
Its value is 1.25.

What about the “MCP-1 blood level, relative value” (blood cytokine levels; non-intake group = 1) of the same compound?
The value was 0.49.

What about the “TNF-α blood level, relative value” (blood cytokine levels; non-intake group = 1) of the same compound?
The value was 2.17.

What about the εGT expression [2] of the same compound?
Its εGT expression is “concentration-dependently suppressed”.
